These results are taken from publication PMC4279406, “Simultaneous targeting of PI3Kδ and a PI3Kδ-dependent MEK1/2-Erk1/2 pathway for therapy in pediatric B-cell acute lymphoblastic leukemia” (Oncotarget, 2014).

Where two headings read alike, the source gives them in different places.

In this assay the test system is Rh30-Myr-p110δ cells. Put plainly: Akt phosphorylation in isogenic Rh30-Myr-p110 cells (Western blot). Type of assay: cell-based, human. The conditions noted are these: for EC50 / IC50: Homo sapiens; for EC50: Rh30-Myr-p110δ cells; for IC50: serum-free 12 h, compound 1 h, band intensity, mean of three experiments. An excerpt: To assess the selectivity of X-370 in the context of an isogenic cellular background, we generated a panel of Rh30 human rhabdomyosarcoma cell lines each of which stably expresses a single myristoylated (Myr)-epitope tagged p110 human class I PI3K catalytic subunit, termed as Rh30-Myr-p110α, Rh30-Myr-p110β, Rh30-Myr-p110γ or Rh30-Myr-p110δ. In these cells, endogenous PI3K is not activated under serum-free culture conditions, whereas the ectopically expressed p110 isoforms are membrane-anchored and constitutively active due to myristoylation at N-terminal. Utilizing this cell panel, isoform-specific PI3K activity can be determined for any given inhibitor[25]. These cells were treated with X-370 and phosphorylated Akt was detected as the readout of PI3K activity. X-370 inhibited phosphorylation of Akt at both Thr308 and Ser473 in a dose-dependent manner in four tested cell lines (Figure 2A). […] Similar property was also observed in CAL-101 (Figure S2).
Cell lysates were probed with indicated antibodies. The IC50 values were calculated based on relative band intensity measured with ImageQuant™ TL (GE Healthcare Life Sciences, Piscataway, NJ) (B). Data shown are mean values from three independent experiments. (C, D, E, F) X-370 blocked stimuli-triggered PI3Kδ activation. MEF cells and THP-1 were starved in serum-free medium for 12 h or 4 h respectively and X-370 were added for an additional 1 h treatment following stimulation of IGF-1 at 100 ng/ml for MEF cells (C), LPA at 10 μM for MEF cells (D), MCP-1 at 100ng/ml for THP-1 (E) and M-CSF at 50 ng/ml for THP-1 (F). Similar results were derived from 3 independent experiments. TEXT PRINTED IN THE PICTURE: (B) X-370: IC50 (μM) in Rh30-Myr-p110s, Akt pT308, PI3Kα: 0.68; IC50 (μM) in Rh30-Myr-p110s, Akt pT308, PI3Kβ: 0.4; IC50 (μM) in Rh30-Myr-p110s, Akt pT308, PI3Kγ: 0.46; IC50 (μM) in Rh30-Myr-p110s, Akt pT308, PI3Kδ: 0.032; IC50 (μM) in Rh30-Myr-p110s, Akt pS473, PI3Kα: 0.53; IC50 (μM) in Rh30-Myr-p110s, Akt pS473, PI3Kβ: 0.29; IC50 (μM) in Rh30-Myr-p110s, Akt pS473, PI3Kγ: 0.23; IC50 (μM) in Rh30-Myr-p110s, Akt pS473, PI3Kδ: 0.02 DOUBTS OF THE COPYIST ABOUT THIS PICTURE: Panel B prints no substance label in the table itself; the label X-370 is taken from the other panels of the same picture, where it is the only substance printed. […]
Cells were treated as indicated conditions and then subjected to lysate to perform standard Western blot as described previously1. Briefly, whole-cell lysates and SDS-loading buffer diluted cell fractions were analyzed on SDS-PAGE gels. Transfer to nitrocellulose membranes, nonfat milk blocking, probing with indicated primary antibodies and the corresponding HRP-conjugated second antibodies.
Chemiluminescence were performed and captured using ImageQuant LAS 4000 (GE healthcare Life Sciences, Piscataway, NJ, USA) and band intensity was measure both with ImageQuant™ TL (GE Healthcare Life Sciences) 2. […]
(also on this page, place not known: PI3Kδ -dependent MEK1/2 - B -cell previously 1. whole -cell SDS -loading SDS -PAGE HRP -conjugated (G E A B Val828 Trp760 Thr750 Met752 Tyr813 affinity pocket specificity pocket hinge Glu826 CAL-101 X-370) […]
(1 picture or pasted object on this page, not shown here) […]
in serum-free medium for 12 h and then incubated with serially diluted CAL -101 for an additional 1 h.
Cell lysates were probed with indicated antibodies. The IC50 values were calculated based on relative band intensity measured with ImageQuant™ TL (GE Healthcare Life Sciences, Piscataway, NJ). Data shown are mean values from three independent experiments.
Table S1: Inhibitory activity of X-370 against protein kinases […]
kinome at 10 μM. The relative kianse activity left in the presence of 10 μM were shown (Mi llipore […]
Kinase activity (% of control) Kinase activity (% of control) Kinase activity (% of control) […]
CDK1/cyclinB 97 Lck activated 89 Ret 125 […]

As to `O=C(N1CCCC1)N1CCC(n2cnc3c(-n4c(C(F)F)nc5ccccc54)nc(N4CCOCC4)nc32)CC1` [X-370], the “fold lower EC50 in Rh30-Myr-p110δ than in isogenic Rh30-Myr-p110α/β/γ cells” value (Akt pT308 and pS473) is “at least 10 fold”. Further, the EC50 runs as follows: (read-out: EC50, Akt phosphorylation (Akt pS473)) 0.02 µM; (read-out: EC50, Akt phosphorylation (Akt pT308)) 0.032 µM. Moreover, the IC50 stood at 0.02 µM (read-out: IC50 (μM) in Rh30-Myr-p110s, Akt pS473, PI3Kδ) and 0.032 µM (read-out: IC50 (μM) in Rh30-Myr-p110s, Akt pT308, PI3Kδ).
